Values of other authors in patent US20200317616A1, “Crystalline Form of Betrixaban Maleate” (Apotex Inc., priority 2019, published 2020).
Counter-ions that a name gives are not always drawn.

Tests used:
[1] = anhydrous form, CDER review NDA 208383
[2] = anhydrous form, CDER review NDA 208383; remark: listed apart in the source
[3] = labelling of BEVYXXA

permeability [1]	solubility [2]	oral bioavailability [3] [%]	Structure (SMILES)
low	high	–	COc1ccc(NC(=O)c2ccc(C(=N)N(C)C)cc2)c(C(=O)Nc2ccc(Cl)cn2)c1 [Betrixaban maleate]
–	–	34	COc1ccc(NC(=O)c2ccc(C(=N)N(C)C)cc2)c(C(=O)Nc2ccc(Cl)cn2)c1 [Betrixaban, N-(5-chloropyridin-2-yl)-2-[4-(N,N-dimethylcarbamimidoyl)-benzoylamino]-5-methoxybenzamide]
